According to US6639078B1, “Assays for ligands for nuclear receptors” (SmithKline Beecham Corporation, priority 1998, dated 2003):
Where two headings read alike, the source gives them in different places.

How the values were obtained:
full-length human FXR = molecular target: T1, full-length human FXR (Homo sapiens, UniProt Q96RI1); assay: CAT reporter assay in CV-1 cells transfected with FXR, human RXRα and FXREhsp27-tk-CAT; settings: 100 μM bile acid or farnesol, 10 μM steroid or TTNPB
T1 sequence (Q96RI1 1-472 isoform Q96RI1-2): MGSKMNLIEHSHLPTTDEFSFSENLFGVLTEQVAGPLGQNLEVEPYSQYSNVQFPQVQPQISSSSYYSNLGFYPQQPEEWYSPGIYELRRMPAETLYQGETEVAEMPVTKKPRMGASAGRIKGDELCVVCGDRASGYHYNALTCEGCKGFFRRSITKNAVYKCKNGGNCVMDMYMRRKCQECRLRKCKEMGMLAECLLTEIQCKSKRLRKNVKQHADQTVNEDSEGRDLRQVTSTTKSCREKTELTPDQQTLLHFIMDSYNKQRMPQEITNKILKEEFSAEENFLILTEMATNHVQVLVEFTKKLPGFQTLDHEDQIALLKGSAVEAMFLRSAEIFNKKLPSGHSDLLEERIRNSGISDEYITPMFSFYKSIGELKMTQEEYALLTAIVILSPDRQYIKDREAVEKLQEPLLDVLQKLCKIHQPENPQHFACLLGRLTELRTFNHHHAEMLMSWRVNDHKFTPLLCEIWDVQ
T1 sequence (P19793 1-462 partner): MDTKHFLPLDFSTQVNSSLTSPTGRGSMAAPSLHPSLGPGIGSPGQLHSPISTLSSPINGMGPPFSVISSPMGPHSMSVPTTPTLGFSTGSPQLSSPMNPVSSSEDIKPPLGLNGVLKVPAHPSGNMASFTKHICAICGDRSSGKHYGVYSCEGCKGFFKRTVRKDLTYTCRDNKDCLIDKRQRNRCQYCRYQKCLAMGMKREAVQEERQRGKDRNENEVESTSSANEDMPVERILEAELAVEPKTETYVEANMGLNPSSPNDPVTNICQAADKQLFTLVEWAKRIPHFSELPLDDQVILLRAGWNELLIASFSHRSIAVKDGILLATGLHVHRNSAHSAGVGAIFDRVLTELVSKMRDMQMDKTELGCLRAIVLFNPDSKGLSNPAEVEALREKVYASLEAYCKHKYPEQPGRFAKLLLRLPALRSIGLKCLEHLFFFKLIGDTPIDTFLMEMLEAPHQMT
Text: CV-1 cells were transiently transfected with an expression plasmid encoding the human FXR and a reporter construct containing the hsp27-EcRE, a response element that is known to be activated by the FXR/RXR heterodimer.

human FXR LBD [1] = molecular target: T2, human FXR LBD (Homo sapiens, UniProt Q96RI1); assay: FRET ligand-sensing assay: SRC1 peptide binding to FXR LBD; settings: 100 μM compound (FIG. 3A/4a)
T2 sequence (Q96RI1 222-472 isoform Q96RI1-2): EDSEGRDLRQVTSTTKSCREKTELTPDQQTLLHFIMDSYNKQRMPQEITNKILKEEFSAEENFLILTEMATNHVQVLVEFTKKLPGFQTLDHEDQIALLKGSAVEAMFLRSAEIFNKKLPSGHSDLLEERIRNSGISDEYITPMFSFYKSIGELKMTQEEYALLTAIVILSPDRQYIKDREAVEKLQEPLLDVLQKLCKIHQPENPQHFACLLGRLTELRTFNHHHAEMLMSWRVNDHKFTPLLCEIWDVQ

human FXR LBD [2] = molecular target: T2, human FXR LBD; assay: FRET ligand-sensing assay in the presence of 50 μM CDCA (competition with CDCA for FXR binding)
Text: Data are expressed as the means ± SD derived from three independent experiments.
Data were collected using a Wallac Victor™ fluorescence reader in a time-resolved mode.

Compound	activation of full-length human FXR (full-length human FXR)	effect on interaction between FXR LBD and SRC1 peptide (human FXR LBD [1])	other results
C[C@H](CCC(=O)O)[C@H]1CC[C@H]2[C@@H]3[C@H](O)[C@@H](O)[C@@H]4C[C@H](O)CC[C@]4(C)[C@H]3CC[C@]12C [α-muricholic acid]	no activation	–	–
C/C(=C\c1ccc(C(=O)O)cc1)c1ccc2c(c1)C(C)(C)CCC2(C)C [TTNPB]	activate FXR	did not promote interactions	effect on CDCA-FXR-SRC1 complex (fluorescence signal) (human FXR LBD [2]; in the presence of 50 μM CDCA): disrupted the CDCA-FXR-SRC1 complex in a dose-dependent fashion
C[C@H](CCC(=O)O)[C@H]1CC[C@H]2[C@@H]3[C@H](O)C[C@@H]4C[C@H](O)CC[C@]4(C)[C@H]3C[C@H](O)[C@]12C [CA, cholic acid]	inactive	no effect	–
muricholic acid [MCA]	–	–	IC50 (human FXR LBD [2]; read-out: half-maximal inhibitor concentration IC50 in the cell-free ligand sensing assay, in the presence of 50 μM CDCA): > 1000 µM
C[C@H](CCC(=O)O)[C@H]1CC[C@H]2[C@@H]3CC[C@@H]4C[C@H](O)CC[C@]4(C)[C@H]3C[C@H](O)[C@]12C [DCA, deoxycholic acid]	–	–	IC50 (human FXR LBD [2]): 100 µM
C[C@H](CCC(=O)O)[C@H]1CC[C@H]2[C@@H]3[C@@H](O)[C@@H](O)[C@@H]4C[C@H](O)CC[C@]4(C)[C@H]3CC[C@]12C [β-muricholic acid]	no activation	–	–
